Assay results reported in paper PMC5499580 (Nucleic Acids Research, 2017).

What was measured:
ribosome [1] = assay: Toe-printing analysis; type: biochemical
[2] = system: E. coli S30 extract translation system; type: biochemical; settings: 5 μM, luciferase mRNA, 37°C, 30 min
VatB acetyltransferase = settings: cited from earlier work
ribosome [3] = settings: compared with MADU on osmC mRNA; cited from earlier work
[4] = system: peptidyl transferase reaction; settings: polyU-guided in vitro translation system; cited from earlier work
ribosome [5] = settings: PURExpress, osmC mRNA; 50 μM; worded as known, no reference given; cited from earlier work
23S rRNA mutation A2503G = settings: cited from earlier work

For `CC1=C\[C@@H](O)C[C@@H](O)Cc2nc(co2)C(=O)N[C@H](C)C(=O)O[C@H](C(C)C)[C@H](C)/C=C/C(=O)NC\C=C\1` [MADU, madumycin II], the “Ribosome stalling on osmC mRNA” value (ribosome [1]; PURExpress cell-free system, osmC mRNA, 0.5, 5 and 50 μM MADU) was “dose-dependent ribosome stalling at the start codon”, the “Progression to second codon, Gly vs Ile second codon” value (ribosome [1]; PURExpress, 5 µM MADU, mutated osmC mRNAs) was “noticeably more ribosomes progressing to the second codon in the case of glycine as compared with the isoleucine” and the “Reduction of the efficiency of protein synthesis” value [2] was over 100 fold. The “Effect of VatB acetylation of C12-hydroxyl on activity” value (VatB acetyltransferase) was “renders the drug inactive”.

In the case of `CC1=C\[C@@H](O)CC(=O)Cc2nc(co2)C(=O)N2CCC[C@@H]2C(=O)O[C@H](C(C)C)[C@H](C)/C=C/C(=O)NC\C=C\1` [pristinamycin IIB], the “Ribosome stalling in toe-printing” value (ribosome [3]) is given as “ribosome stalling at the start codon”.

For `CC1=C\[C@@H](O)CC(=O)Cc2nc(co2)C(=O)N2CCC=C2C(=O)O[C@H](C(C)C)[C@H](C)/C=C/C(=O)NC\C=C\1` [virginiamycin M], the “Effect on peptidyl transferase reaction” value [4] is given as “specifically inhibits the peptidyl transferase reaction”.

In the case of `C=C(NC(=O)C(=C)NC(=O)c1csc(C2=N[C@@H]3c4csc(n4)[C@H]4NC(=O)c5csc(n5)[C@H]([C@](C)(O)[C@@H](C)O)NC(=O)[C@H]5CSC(=N5)/C(=C/C)NC(=O)[C@H]([C@@H](C)O)NC(=O)c5csc(n5)[C@]3(CC2)NC(=O)[C@H](C)NC(=O)C(=C)NC(=O)[C@H](C)NC(=O)[C@H]([C@@H](C)CC)N[C@@H]2C=Cc3c([C@H](C)O)cc(nc3[C@H]2O)C(=O)O[C@@H]4C)n1)C(N)=O` [Thiostrepton, thiostrepton], the “Ribosome stalling by positive control (first codon)” value (ribosome [5]) is given as “stall ribosomes at the first codon”.

In the case of `O=C(N[C@H](CO)[C@H](O)c1ccc([N+](=O)[O-])cc1)C(Cl)Cl` [chloramphenicol], the “Resistance conferred by A2503G” value (23S rRNA mutation A2503G) is listed as “confers resistance”.
